From patent publication US6992102B2, “Bicyclic modulators of androgen receptor function” (Bristol-Myers Squibb Company, priority 2001, dated 2006)

How the values were obtained:
[1] = target: endogenous glucocorticoid receptor (Homo sapiens, UniProt P04150); settings: concentration ≦10 µM; A549 cells stimulated with 10 ng/ml PMA; versus buffer control
Procedure: A549 cells, which contain endogenous glucocorticoid receptor, were stably transfected with an AP-1 DNA binding site attached to the luciferase gene. […] Cells are plated the day before the assay at approximately 40000 cells/well. […] Activity is measured by analysis in a luminometer as compared to control experiments treated with buffer or dexamethasome.

AR = target: T1, AR (Rattus norvegicus, UniProt P15207)
T1 sequence (P15207 1-902): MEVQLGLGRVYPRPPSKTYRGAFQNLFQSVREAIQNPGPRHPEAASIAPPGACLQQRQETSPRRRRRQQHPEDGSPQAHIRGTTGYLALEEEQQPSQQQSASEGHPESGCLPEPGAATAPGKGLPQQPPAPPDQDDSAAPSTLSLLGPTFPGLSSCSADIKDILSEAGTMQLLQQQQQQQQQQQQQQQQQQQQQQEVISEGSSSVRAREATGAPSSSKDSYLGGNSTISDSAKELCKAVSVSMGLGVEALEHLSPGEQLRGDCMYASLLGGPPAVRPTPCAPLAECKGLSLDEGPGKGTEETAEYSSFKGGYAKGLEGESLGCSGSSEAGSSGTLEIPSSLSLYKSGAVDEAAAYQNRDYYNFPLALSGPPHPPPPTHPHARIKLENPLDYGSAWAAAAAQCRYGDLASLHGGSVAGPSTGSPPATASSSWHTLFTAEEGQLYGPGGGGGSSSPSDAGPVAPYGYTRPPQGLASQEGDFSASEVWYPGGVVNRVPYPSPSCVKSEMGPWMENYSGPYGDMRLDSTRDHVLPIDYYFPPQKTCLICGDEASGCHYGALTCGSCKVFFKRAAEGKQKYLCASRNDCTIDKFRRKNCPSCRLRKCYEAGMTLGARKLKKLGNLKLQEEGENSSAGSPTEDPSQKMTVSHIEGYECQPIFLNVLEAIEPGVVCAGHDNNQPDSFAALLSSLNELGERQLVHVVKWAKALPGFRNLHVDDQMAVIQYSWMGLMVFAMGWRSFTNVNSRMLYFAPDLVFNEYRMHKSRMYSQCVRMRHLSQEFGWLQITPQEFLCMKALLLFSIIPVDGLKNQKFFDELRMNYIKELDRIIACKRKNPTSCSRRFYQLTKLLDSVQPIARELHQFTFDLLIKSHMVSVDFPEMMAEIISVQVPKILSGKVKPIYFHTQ
Excerpt: The activity of compounds of the present invention as AR agonists was investigated in an immature male rat model, a recognized test of anabolic effects in muscle and sustaining effects in sex organs for a given compound, as described in L. G. Hershberger et al., Proc. Soc. […] Biol. Med., 83, 175 (1953); B. L. Beyler et al, “Methods for evaluating anabolic and catabolic agents in laboratory animals”, J. Amer. Med. Women's Ass., 23, 708 (1968); H. Fukuda et al., “Investigations of the levator ani muscle as an anabolic steroid assay”, Nago Dai. Yak. Ken. Nem. 14, 84 (1966) the disclosures of which are herein incorporated by reference.
The basis of this assay lies in the well-defined action of androgenic agents on the maintenance and growth of muscle tissues and sexual accessory organs in animals and man. […] J. Anat. […] Ital. Biol. Sper. […] II. […] Ital. Biol. Sper. 42, 1600 (1966); A. Boris et al., Steroids 15, 61 (1970). As described above, the effects of androgens on maintenance of male sexual accessory organs, such as the prostate and seminal vesicles, is well described. Castration results in rapid involution and atrophy of the prostate and seminal vesicles. This effect can be reversed by exogenous addition of androgens. […]

endogenous glucocorticoid receptor, sequence (P04150 whole entry): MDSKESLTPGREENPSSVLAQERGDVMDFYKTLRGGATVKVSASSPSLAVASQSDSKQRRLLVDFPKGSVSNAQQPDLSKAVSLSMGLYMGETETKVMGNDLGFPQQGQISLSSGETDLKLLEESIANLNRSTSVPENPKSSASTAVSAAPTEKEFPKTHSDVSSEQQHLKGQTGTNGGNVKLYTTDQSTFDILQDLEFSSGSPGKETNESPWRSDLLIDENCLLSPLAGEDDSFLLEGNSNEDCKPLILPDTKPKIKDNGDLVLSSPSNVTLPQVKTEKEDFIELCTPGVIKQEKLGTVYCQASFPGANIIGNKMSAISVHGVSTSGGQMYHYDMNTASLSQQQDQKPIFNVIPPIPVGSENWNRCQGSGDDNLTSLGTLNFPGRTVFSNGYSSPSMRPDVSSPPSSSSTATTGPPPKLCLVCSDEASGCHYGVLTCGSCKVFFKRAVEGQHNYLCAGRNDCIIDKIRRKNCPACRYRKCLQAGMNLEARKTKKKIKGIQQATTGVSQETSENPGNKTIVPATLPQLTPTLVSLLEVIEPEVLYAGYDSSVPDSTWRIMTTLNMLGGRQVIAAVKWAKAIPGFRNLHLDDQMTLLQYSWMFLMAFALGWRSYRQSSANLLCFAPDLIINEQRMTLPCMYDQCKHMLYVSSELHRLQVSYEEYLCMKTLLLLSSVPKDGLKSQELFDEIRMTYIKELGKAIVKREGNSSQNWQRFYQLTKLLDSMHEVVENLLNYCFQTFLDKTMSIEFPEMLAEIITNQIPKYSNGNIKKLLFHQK

| SMILES | melting point [°C] | other results |
| --- | --- | --- |
| O=C1C2C[C@@H](OCc3ccccc3)CN2C(=O)N1c1ccc([N+](=O)[O-])c2ccccc12 (stereo partly shown) | 120 to 122 | – |
| N#Cc1ccc(N2C(=O)[C@H]3[C@@H](O)CCCN3C2=O)c2ccccc12 | 244 | – |
| N#Cc1ccc(N2C(=O)C3=CCCN3C2=O)c2ccccc12 | 230 to 232 | – |
| N#Cc1ccc(N2C(=O)[C@@H]3[C@H](O)CCCN3C2=O)c2ccccc12 (racemic) | 243 | – |
| CO[C@H]1CCN2C(=O)N(c3ccc(C#N)c4ccccc34)C(=O)[C@@H]12 (racemic) | 185 to 186 | – |
| CC(=O)O[C@@H]1CCN2C(=O)N(c3ccc(C#N)c4ccccc34)C(=O)[C@H]12 (racemic) | 105 | – |
| CC(C)(C)[C@H]1N(c2ccc(C#N)c3ccccc23)C(=O)[C@@H]2C[C@@H](O)CN21 | 155 to 157 | – |
| N#Cc1ccc(N2C[C@@H]3[C@H](O)CCN3C2=O)c2ccccc12 | 226 to 228 | – |
| Cl.N#Cc1ccc(N2C(=O)C3CNCCN3C2=O)c2ccccc12 (racemic) | 200 | – |
| C[C@@H]1C[C@H]2[C@@H]3CCC4=CC(=O)C=C[C@]4(C)[C@@]3(F)[C@@H](O)C[C@]2(C)[C@@]1(O)C(=O)CO [dexamethasone] | – | % inhibition of the reporter system (suppresses activity) [1]: 65% |
| CC(C)(C)OC(=O)N1CCN2C(=O)N(c3ccc(C#N)c4ccccc34)C(=O)C2C1 (stereo not shown) | 222 to 224 | – |
| CS(=O)(=O)N1CCN2C(=O)N(c3ccc(C#N)c4ccccc34)C(=O)C2C1 (racemic) | 207 to 216 | – |
| N#Cc1ccc(N2C(=O)[C@H]3[C@@H](O)[C@@H](O)CN3C2=O)c2ccccc12 (stereo in doubt) | 246 | – |
| O=C1C2CCCCN2C(=O)N1c1ccc([N+](=O)[O-])c2ccccc12 (racemic) | 190 to 192 | – |
| CCC(=O)O[C@H]1CC[C@H]2[C@@H]3CCC4=CC(=O)CC[C@]4(C)[C@H]3CC[C@]12C [TP, testosterone propionate] | – | EC50 (organ weight increase) (AR; immature castrated rats): ~0.03 mg; potency relative to free T (AR; organ weight increase, castrated rats): 10–30 fold |
| O=C1[C@H]2[C@@H](O)CCN2C(=O)N1c1ccc(Br)c2ccccc12 (racemic) | 204 to 206 | – |
| N#Cc1ccc(N2CC3[C@@H](O)CCN3C2=O)c2ccccc12 (stereo partly shown) | 226 to 228 | – |
| N#Cc1ccc(N2C(=O)[C@@H]3[C@H](O)CCN3C2=S)c2ccccc12 | 215 to 216 | – |
| N#Cc1ccc(N2C(=O)[C@@H]3[C@H](O)[C@H](O)CN3C2=O)c2ccccc12 (stereo in doubt) | 225 | – |
| C[C@]12C(=O)N(c3ccc(C#N)c4ccccc34)C(=O)N1CC[C@H]2O | 232 to 234 | – |
| C[C@@]12C(=O)N(c3ccc(C#N)c4ccccc34)C(=O)N1CC[C@@H]2O | 234 to 235 | – |
